Reference: patent US20230322724A1, “HETEROCYCLIC COMPOUNDS AS CBP/EP300 BROMODOMAIN INHIBITORS” (AURIGENE ONCOLOGY LIMITED, priority 2020, published 2023)

What was measured:
Type in all cases: binding
[1] = molecular target: T1, recombinant CREBBP bromodomain (Homo sapiens, UniProt Q92793); test: CBP TR-FRET displacement assay; conditions: for IC50: dose-response, read-out: IC50 (group A, B, C); for inhibition at 10 µM: compound at 10 μM
T1 construct: recombinant CREBBP bromodomain obtained from BPS Bioscience, USA; purchased BPS Bioscience, USA
T1 sequence (Q92793 1085-1192 limits assumed): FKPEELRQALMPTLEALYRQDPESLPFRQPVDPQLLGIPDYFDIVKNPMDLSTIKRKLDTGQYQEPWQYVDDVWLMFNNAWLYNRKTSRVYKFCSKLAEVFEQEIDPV
Outline: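 CREBBP bromodomain (50 nM) preincubated 30 min at room temperature with 500 nM biotinylated ligand in HEPES pH 7.5 buffer with TCEP, then 60 min with compound. Eu-anti-His/APC-streptavidin TR-FRET 665/615 nm ratio read; IC50 from sigmoidal dose-response fit.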

[2] = molecular target: T2, recombinant P300 bromodomain (Homo sapiens, UniProt Q09472); test: P300 TR-FRET displacement assay; conditions: dose-response, read-out: IC50 (group A, B, C)
T2 construct: recombinant P300 bromodomain obtained from BPS Bioscience, USA; purchased BPS Bioscience, USA
T2 sequence (Q09472 1049-1156 limits assumed): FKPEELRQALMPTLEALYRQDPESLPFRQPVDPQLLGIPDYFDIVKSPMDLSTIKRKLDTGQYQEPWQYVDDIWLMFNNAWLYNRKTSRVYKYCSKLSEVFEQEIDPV
Procedure: The potency of compounds to inhibit P300 enzyme was tested in a TR-FRET displacement assay using recombinant P300 bromodomain obtained from BPS Bioscience, USA. The assay buffer was 50 mM HEPES (pH 7.5), 50 mM NaCl, 0.008% Brij 35, 0.01% BSA, 1 mM TCEP. 50 nM of P300 & 500 nM of Biotinylated ligand was incubated at room temperature for 30 minutes, the reaction was initiated by adding the pre-incubated enzyme ligand mixture to the test compounds. After 60 min incubation, the reaction was stopped by the addition of stop mix containing 1 nM of LANCE Europium-anti-6xHis antibody (Perkin Elmer, USA) and 40 nM of Sure Light Allophycocyanin-Streptavidin (Perkin Elmer, USA). Fluorescence emission of the samples at 665 and 615 nm were measured at an excitation of 340 nm and their ratio was plotted against the compound concentrations to generate dose-response curve.
Selected compounds of the present invention were screened in the above-mentioned assay procedures and IC50 values were determined by fitting the dose-response data to sigmoidal curve fitting equation using Graph pad prism software V7.

[3] = molecular target: T3, recombinant BRD4 FL bromodomain (Homo sapiens, UniProt O60885); test: BRD4 FL TR-FRET displacement assay; conditions: BRD4 FL; for IC50: dose-response, read-out: IC50 (group A, B, C); for inhibition at 10 µM: compound at 10 μM, read-out: % Inhibition (10 μM)
T3 construct: fused on or other part: 6xHis tag, inferred from detection with Mab ANTI 6HIS-XL665
Outline: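 Recombinant BRD4 FL (10 nM) pre-incubated 30 min at room temperature with 300 nM biotinylated acetyl-histone H4 (K5/8/12/16) in 50 mM HEPES pH 7.5, 50 mM NaCl, 500 μM CHAPS, then added to compounds for 30 min. Stopped with Eu-streptavidin/anti-6His-XL665 in KF; 665/615 nm ratio fitted sigmoidally for IC50.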

| SMILES | IC50 [1] [nM] | IC50 [2] [nM] | IC50 [3] [nM] | inhibition at 10 µM [1] [%] | inhibition at 10 µM [3] [%] |
| --- | --- | --- | --- | --- | --- |
| Cc1cc2c(N3CCCc4cc(-c5cnn(C)c5)c(C(F)F)cc43)cncc2n(C)c1=O [Example 180] | 51 to 100 | < 25 | 2010 to 5000 |  |  |
| Cc1cc2c(N3CCN(C)c4cc(-c5cnn(C)c5)ccc43)cccc2[nH]c1=O [Example 6] | > 10 | > 50000 | 2010 to 5000 | 100 |  |
| CN1CCN(c2cccc3c2cc(N)c(=O)n3C)c2cc(C#N)c(-c3cnn(C)c3)cc21 [Example 77, 4-(3-Amino-1-methyl-2-oxo-1,2-dihydroquinolin-5-yl)-1-methyl-7-(1-methyl-1H-pyrazol-4-yl)-1,2,3,4-tetrahydroquinoxaline-6-carbonitrile] | > 10 | > 50000 | 2010 to 5000 |  |  |

More lines, now with the values ahead:

| IC50 [1] [nM] | IC50 [2] [nM] | IC50 [3] [nM] | inhibition at 10 µM [1] [%] | inhibition at 10 µM [3] [%] | SMILES |
| --- | --- | --- | --- | --- | --- |
| < 50 | 25 to 50 | 2010 to 5000 |  |  | COc1cc(N2CCN(C)c3cc(C(=O)O)c(C#N)cc32)c2cc(C)c(=O)n(C)c2c1 [Example 68, 7-cyano-1-(7-methoxy-1,3-dimethyl-2-oxo-1,2-dihydroquinolin-5-yl)-4-methyl-1,2,3,4-tetrahydroquinoxaline-6-carboxylic acid] |
| < 50 | < 25 | 2010 to 5000 |  |  | COc1cc(N2CCN(C)c3ccc(S(N)(=O)=O)cc32)c2cc(C)c(=O)n(C)c2c1 [Example 94] |
| < 50 | > 50000 |  | 90 | 77 | COc1cc(N2CCN(C)c3cc(-c4cnn(C)c4)c(C#N)cc32)c2cc(C)c(=O)[nH]c2c1 [Example 7] |
| < 50 | 25 to 50 |  | 96 | 81 | Cc1cc2c(N3CCN(C)c4cc(-c5cnn(C)c5)c(C#N)cc43)cccc2n(C)c1=O [Example 42] |
